Read-outs that look alike come from different tables or passages of the source.

Data on 11 compounds can be found in patent US11753408B2, “Compounds and method for blocking transmission of malarial parasite” (The United States of America, as represented by the …, priority 2016, dated 2023).

For data set [1], the system named is Stage III-V gametocytes (blood stage P. falciparum parasites). The data set is described as follows: In vitro drug activity on gametocytes (AlamarBlue viability assay). Type of data set: cell-based, Plasmodium falciparum. The following applies: read-out: Gametocyte EC50. The method in brief:
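P. falciparum 3D7 stage III–V gametocytes (also HB3, Dd2), enriched by 50 mM N-acetylglucosamine and Percoll gradient, seeded at 20,000/well with compound for 72 h at 37° C, 5% CO2. AlamarBlue then added for 24 h; viability read as fluorescence (Ex 525, Em 598 nm).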

Data set [2] concerns Asexual parasites of P. falciparum strain 3D7. The data set is described as follows: In vitro drug activity on asexual parasites (SYBR Green assay). Type of data set: cell-based, Plasmodium falciparum. The method in brief: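 3D7 parasites at 0.5% parasitemia and 2% hematocrit were exposed to drugs (DMSO ≤0.5%) for 72 h under standard culture conditions, in duplicate. After freeze-thaw lysis, SYBR Green I lysis buffer was added for 30 min at room temperature, and fluorescence was read at 490/520 nm.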

Data set [3] is described as follows: Microsomal stability (rat). Type of data set: in vitro ADME. To be noted: rat microsomes.
Another data set can be described thus: Solubility at pH 7.4. Type of data set: physicochemical.
Another data set can be described thus: PAMPA permeability. It is filed as in vitro ADME.
Setting [4] is: P. falciparum stage III-V gametocytes, 72 h incubation, AlamarBlue.
The mark [5] stands for this setting: P. falciparum 3D7 asexual parasites, 72 h, SYBR Green.

On to `CS(=O)(=O)c1ccc(-n2c(=O)ccc3cnc4ccc(-c5ccc(C=O)cc5)cc4c32)cc1` [Compound 65], for which the EC50 is 461 nM in data set [1] (setting [4]) and 43.1 nM in data set [2] (setting [5]). Moreover, the “Microsomal Stability (rat) T1/2” value in data set [3] turned out to be 2.9 min. Further, the “Sol @ pH 7.4 (ug/mL)” value in the data set “Solubility at pH 7.4” is under 1 ug/mL. Besides, in the data set “PAMPA permeability”, the “PAMPA Permeability (×10^6 cm/s)” value is on record as 5.4 ×10^6 cm/s.

For `Nc1ccc(-c2ccc3ncc4ccc(=O)n(-c5cccc(S(N)(=O)=O)c5)c4c3c2)cn1` [Compound 77], the EC50 in data set [1] (setting [4]) came out at 295 nM; in data set [2] (setting [5]) it was 81.7 nM. Also, the “Microsomal Stability (rat) T1/2” value in data set [3] is over 30.0 min. Besides, in the data set “Solubility at pH 7.4”, the “Sol @ pH 7.4 (ug/mL)” value is on record as 33.6 ug/mL. Further, the “PAMPA Permeability (×10^6 cm/s)” value in “PAMPA permeability” is given as <1.0 ×10^6 cm/s.

Turning to `CS(=O)(=O)c1ccc(-n2c(=O)ccc3cnc4ccc(-c5ccc(N)nc5)cc4c32)cc1` [Compound 79], the figures for the EC50 in data set [1] (setting [4]) and in data set [2] (setting [5]) were 22.8 nM and 4.76 nM, respectively. For the same compound, in data set [3], the “Microsomal Stability (rat) T1/2” value is recorded as over 30.0 min. Also, the “Sol @ pH 7.4 (ug/mL)” value in “Solubility at pH 7.4” was under 1.0 ug/mL. The “PAMPA Permeability (×10^6 cm/s)” value in “PAMPA permeability” was <11.8 ×10^6 cm/s.

Consider `O=C(c1ccc(-n2c(=O)ccc3cnc4ccc(-c5ccc(Cl)cc5)cc4c32)cc1)N1CCOCC1` [Compound 85], for which the EC50 turned out to be 77.6 nM in data set [1] and 6.89 nM in data set [2]. In data set [3], the “Microsomal Stability (rat) T1/2” value came out at 9 min. Also, the “Sol @ pH 7.4” value in “Solubility at pH 7.4” is recorded as under 1.0 ug/mL. For the same compound, the PAMPA Permeability in “PAMPA permeability” was 794 ×10⁻⁶ cm/s.

Turning to `CNC(=O)c1ccc(-n2c(=O)ccc3cnc4ccc(-c5ccc(Cl)cc5)cc4c32)cc1` [Compound 99], the EC50 worked out at 130 nM in data set [1] and 46.7 nM in data set [2]. The “Microsomal Stability (rat) T1/2” value in data set [3] amounted to 16.9 min. Also, in “Solubility at pH 7.4”, the “Sol @ pH 7.4” value is under 1.0 ug/mL. In addition, the PAMPA Permeability in “PAMPA permeability” amounted to 1050 ×10⁻⁶ cm/s.

Turning to `CN(C)Cc1ccc(-c2ccc3ncc4ccc(=O)n(-c5ccc6c(c5)CNC6=O)c4c3c2)cc1` [Compound 340], the EC50 in data set [1] (setting [4]) was 616 nM; in data set [2] (setting [5]) it was 266 nM. In data set [3], the “Microsomal Stability (rat) T1/2” value was over 30.0 min. Further, in “Solubility at pH 7.4”, the “Sol @ pH 7.4 (ug/mL)” value is on record as over 68.0 ug/mL. Further, in “PAMPA permeability”, the “PAMPA Permeability (×10^6 cm/s)” value is on record as 5.2 ×10^6 cm/s.

Regarding `CN(C)Cc1ccc(-c2ccc3ncc4ccc(=O)n(-c5ccc6c(c5)CCNC6=O)c4c3c2)cc1` [Compound 342], the figures for the EC50 in data set [1] (setting [4]) and in data set [2] (setting [5]) were 350 nM and 130 nM, respectively. Besides, in data set [3], the “Microsomal Stability (rat) T1/2” value is over 30.00 min. Moreover, the “Sol @ pH 7.4 (ug/mL)” value in the data set “Solubility at pH 7.4” is on record as 31.01 ug/mL. The “PAMPA Permeability (×10^6 cm/s)” value in “PAMPA permeability” was 12.72 ×10^6 cm/s.

Turning to `CN(C)Cc1ccc(-c2ccc3ncc4ccc(=O)n(-c5ccc6c(c5)CN(C)C6=O)c4c3c2)cc1` [Compound 347], the 50% effective concentration (EC50) in data set [1] (setting [4]) was determined as 1720 nM; in data set [2] (setting [5]), 668 nM. Besides, in data set [3], the “Microsomal Stability (rat) T1/2” value is listed as over 30.0 min. The “Sol @ pH 7.4 (ug/mL)” value in the data set “Solubility at pH 7.4” is on record as over 70.0 ug/mL. In the data set “PAMPA permeability”, the “PAMPA Permeability (×10^6 cm/s)” value is 317.6 ×10^6 cm/s.

For the compound `CCN1Cc2cc(-n3c(=O)ccc4cnc5ccc(-c6ccc(CN(C)C)cc6)cc5c43)ccc2C1=O` [Compound 348], the EC50 was 2450 nM in data set [1] (setting [4]) and 1460 nM in data set [2] (setting [5]). Besides, the “Microsomal Stability (rat) T1/2” value in data set [3] was over 30.0 min. Moreover, the “Sol @ pH 7.4 (ug/mL)” value in the data set “Solubility at pH 7.4” was over 72.0 ug/mL. In “PAMPA permeability”, the “PAMPA Permeability (×10^6 cm/s)” value is reported as 289.4 ×10^6 cm/s.

For `CN(C)Cc1ccc(-c2ccc3ncc4ccc(=O)n(-c5ccc6c(c5)C(=O)NC6)c4c3c2)cc1` [Compound 349], the EC50 in data set [1] (setting [4]) was determined as 26800 nM; in data set [2] (setting [5]), 14200 nM. For the same compound, in data set [3], the “Microsomal Stability (rat) T1/2” value is listed as over 30.0 min. The “Sol @ pH 7.4 (ug/mL)” value in “Solubility at pH 7.4” is over 68.0 ug/mL. Further, in “PAMPA permeability”, the “PAMPA Permeability (×10^6 cm/s)” value was 2.5 ×10^6 cm/s.

Take `CN(C)Cc1ccc(-c2ccc3ncc4ccc(=O)n(-c5ccc6c(c5)CN(C5CC5)C6=O)c4c3c2)cc1` [Compound 354]: the EC50 is 1910 nM in data set [1] (setting [4]) and 687 nM in data set [2] (setting [5]). Further, in data set [3], the “Microsomal Stability (rat) T1/2” value is reported as over 30.0 min. Moreover, in the data set “Solubility at pH 7.4”, the “Sol @ pH 7.4 (ug/mL)” value is over 74.0 ug/mL. For the same compound, in the data set “PAMPA permeability”, the “PAMPA Permeability (×10^6 cm/s)” value is recorded as 292.3 ×10^6 cm/s.
